What all share (format): cell-based
The subject of one experiment is BHK-21 cells. Kind of experiment: Anti-fibrosis activity test: inhibition of BHK-21 cell proliferation (CCK-8). The following applies: Mesocricetus auratus, BHK-21, 48 h, CCK-8, 48 hours after administration. The method, boiled down: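 Cells seeded at 2×10^4 cells/mL, allowed to adhere 24 hours, then exposed to graded compound concentrations in triplicate for 48 hours at 37° C, 5% CO2. CCK-8 added for 2 hours, absorbance read at 450 nm; inhibition versus blank control used to derive IC50. Pirfenidone served as positive control.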

Experiment [1] concerns human fibrosarcoma cells HT-1080. Kind of experiment: Anti-fibrosis activity test: inhibition of proliferation of human fibrosarcoma cells HT-1080 (CCK-8). The following applies: human fibrosarcoma cells HT-1080, CCK-8, 48 hours. The method, boiled down: (§1)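 Cells seeded at 2×10^4 cells/mL, adhered 24 h, then exposed to compound concentrations in triplicate for 48 h at 37° C, 5% CO2. CCK-8 added for 2 h, absorbance at 450 nm; inhibition = (1−Ai/Ao)×100% versus blank control, IC50 calculated.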

For experiment [2], the system named is cardiac fibroblast RAT-iCell-C002. Kind of experiment: Anti-fibrosis activity test: inhibition of proliferation of cardiac fibroblast RAT-iCell-C002 (CCK-8). The following applies: Cardiac fibroblast, 48 h, cardiac fibroblast RAT-iCell-C002, CCK-8, 48 hours. The procedure, abridged: as §1
In experiment [3] the test system is human dermal fibroblasts CCC-ESF-1. Kind of experiment: Anti-fibrosis activity test: inhibition of proliferation of human dermal fibroblasts CCC-ESF-1 (CCK-8). The following applies: Fibroblast; human dermal fibroblasts CCC-ESF-1, CCK-8, 48 hours. The method, boiled down:
as §1

For experiment [4], the system named is human hepatic stellate cells LX-2. The experiment in a line: Anti-fibrosis activity test: inhibition of proliferation of human hepatic stellate cells LX-2 (CCK-8). The following applies: Homo sapiens, 48 h, human hepatic stellate cells LX-2, CCK-8, 48 hours. The procedure, abridged: as §1
Experiment [5] deals with mouse macrophages (RAW264.7). Kind of experiment: Lipopolysaccharide-induced NO secretion in macrophages (Griess). The following applies: RAW264.7, LPS 1 μg/ml, a/b isomers given as first/second symbol, read-out: IC50 (μM), inhibition of lipopolysaccharide-induced NO secretion in macrophages. The procedure, abridged: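 RAW264.7 macrophages in DMEM with 10% FBS received test samples at several concentrations and were stimulated with 1 μg/ml LPS for 24 h. NO in the supernatant was measured with the Griess reagent at 548 nm, […].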
(In general: Griess reagent forms a coloured azo dye with nitrite.)

Experiment [6] concerns human embryonic lung fibroblast IMR-90. Kind of experiment: Anti-fibrosis activity test: inhibition of proliferation of human embryonic lung fibroblast IMR-90 (CCK-8). The following applies: human embryonic lung fibroblast IMR-90, CCK-8, 48 hours. The procedure, abridged: as §1
The test system of experiment [7] is human lung fibroblasts HFL1. The experiment in a line: Anti-fibrosis activity test: inhibition of proliferation of human lung fibroblasts HFL1 (CCK-8). The following applies: Homo sapiens, HFL1, 48 h, human lung fibroblasts HFL1, CCK-8, 48 hours. The procedure, abridged:
as §1

Where two headings read alike, the source gives them in different places.

For the compound `O=C1c2c(n(Cc3cccc(F)c3)c3cccc(F)c3c2=O)-c2cccn21` [Compound 475a, 8-Fluoro-4-(3-fluorobenzyl)-9H-pyrrolizino[1,2-b]quinoline-9,10(4H)-dione], the IC50 was 0.05 to 5 mM in the experiment on BHK-21 cells; 5 to 20 mM in experiment [1] (Homo sapiens, HT-1080, 48 h); 0.05 to 5 mM in experiment [2]; 0.05 to 5 mM in experiment [3]; 0.05 to 5 mM in experiment [4]; 1 to 10 µM in experiment [5] (Mus musculus, RAW264.7, 24 h). Besides, the half-inhibitory concentration (IC50) in experiment [6] and in experiment [7] was 0.05 to 5 mM each time.
As for `O=C1c2c(nc3cccc(F)c3c2OCc2cccc(F)c2)-c2cccn21` [Compound 475b, 8-fluoro-9-((3-fluorobenzyl)oxy)-10H-pyrrolizino[1,2-b]quinolin-10-one], the IC50 in the experiment on BHK-21 cells is 0.05 to 5 mM; in experiment [1] (Homo sapiens, HT-1080, 48 h) it was below 0.05 mM; in experiment [2], 0.05 to 5 mM; in experiment [3] it was 0.05 to 5 mM; in experiment [4], 0.05 to 5 mM; in experiment [5] (Mus musculus, RAW264.7, 24 h) it was 1 to 10 µM. The IC50 in experiment [6] and in experiment [7] was 0.05 to 5 mM each time.
For the compound `O=C1c2c(n(Cc3ccccc3F)c3cccc(Cl)c3c2=O)-c2cccn21` [Compound 480a, 8-Chloro-4-(2-fluorobenzyl)-9H-pyrrolizino[1,2-b]quinoline-9,10(4H)-dione], the half-inhibitory concentration (IC50) in the experiment with BHK-21 cells is 0.05 to 5 mM; in experiment [1] (Homo sapiens, HT-1080, 48 h), 0.05 to 5 mM; in experiment [2], below 0.05 mM; in experiment [3] it was 0.05 to 5 mM; in experiment [4], 0.05 to 5 mM; in experiment [5] (Mus musculus, RAW264.7, 24 h) it was 10 to 50 µM. The IC50 in experiment [6] and in experiment [7] was 0.05 to 5 mM each time.
As to `O=C1c2c(nc3cccc(Cl)c3c2OCc2ccccc2F)-c2cccn21` [Compound 480b, 8-chloro-9-((2-fluorobenzyl)oxy)-10H-pyrrolizino[1,2-b]quinolin-10-one], the 50% inhibitory concentration (IC50) fell in the range of 0.05 to 5 mM in the experiment on BHK-21 cells; 0.05 to 5 mM in experiment [1] (Homo sapiens, HT-1080, 48 h); 0.05 to 5 mM in experiment [2]; 0.05 to 5 mM in experiment [3]; 0.05 to 5 mM in experiment [4]; 1 to 10 µM in experiment [5] (Mus musculus, RAW264.7, 24 h). In addition, the IC50 in experiment [6] and in experiment [7] was 0.05 to 5 mM in each case.
With `O=C1c2c(n(Cc3ccc(F)cc3)c3c(Cl)cccc3c2=O)-c2cccn21` [Compound 481a, 5-Chloro-4-(4-fluorobenzyl)-9H-pyrrolizino[1,2-b]quinoline-9,10(4H)-dione], the IC50 is below 0.05 mM in the experiment with BHK-21 cells; 0.05 to 5 mM in experiment [1] (Homo sapiens, HT-1080, 48 h); 0.05 to 5 mM in experiment [2]; 0.05 to 5 mM in experiment [3]; 0.05 to 5 mM in experiment [4]; 10 to 50 µM in experiment [5] (Mus musculus, RAW264.7, 24 h). The IC50 in experiment [6] and in experiment [7] was 0.05 to 5 mM throughout.
Take `O=C1c2c(nc3c(Cl)cccc3c2OCc2ccc(F)cc2)-c2cccn21` [Compound 481b, 5-chloro-9-((4-fluorobenzyl)oxy)-10H-pyrrolizino[1,2-b]quinolin-10-one]: the half-maximal inhibitory concentration (IC50) in the experiment with BHK-21 cells was in the range of 0.05 to 5 mM; in experiment [1] (Homo sapiens, HT-1080, 48 h) it was 0.05 to 5 mM; in experiment [2] it was 0.05 to 5 mM; in experiment [3], 0.05 to 5 mM; in experiment [4], 0.05 to 5 mM; in experiment [5] (Mus musculus, RAW264.7, 24 h), 1 to 10 µM. The 50% inhibitory concentration (IC50) in experiment [6] and in experiment [7] was 0.05 to 5 mM throughout.
Regarding `N#Cc1c(N2CCNCC2)ccc2c(=O)c3c(n(Cc4ccc(F)cc4)c12)-c1cccn1C3=O` [Compound 482a, 4-(4-Fluorobenzyl)-9,10-dioxo-6-(piperazin-1-yl)-4,10-dihydro-9H-pyrrolizino[1,2-b]quinoline-5-carbonitrile], the IC50 in the experiment on BHK-21 cells was in the range of 0.05 to 5 mM; in experiment [1], 5 to 20 mM; in experiment [2] it was 0.05 to 5 mM; in experiment [3], 0.05 to 5 mM; in experiment [4], 0.05 to 5 mM; in experiment [5] (24 hours), 10 to 50 µM. Moreover, the IC50 in experiment [6] and in experiment [7] was 0.05 to 5 mM each time.
Regarding `N#Cc1c(N2CCNCC2)ccc2c(OCc3ccc(F)cc3)c3c(nc12)-c1cccn1C3=O` [Compound 482b, 9-((4-fluorobenzyl)oxy)-10-oxo-6-(piperazin-1-yl)-10H-pyrrolizino[1,2-b]quinoline-5-carbonitrile], the IC50 is 0.05 to 5 mM in the experiment with BHK-21 cells; below 0.05 mM in experiment [1] (Homo sapiens, HT-1080, 48 h); 0.05 to 5 mM in experiment [2]; 0.05 to 5 mM in experiment [3]; 0.05 to 5 mM in experiment [4]; 1 to 10 µM in experiment [5] (Mus musculus, RAW264.7, 24 h). Further, the half-inhibitory concentration (IC50) in experiment [6] and in experiment [7] was 0.05 to 5 mM each time.
`O=C1c2c(n(Cc3ccc(Cl)cc3)c3c(C(F)(F)F)c(N4CCNCC4)ccc3c2=O)-c2cccn21` [Compound 483a, 4-(4-Chlorobenzyl)-6-(piperazin-1-yl)-5-(trifluoromethyl)-9H-pyrrolizino[1,2-b]quinoline-9,10(4H)-dione]: the IC50 in the experiment with BHK-21 cells is below 0.05 mM; in experiment [1] (Homo sapiens, HT-1080, 48 h), 0.05 to 5 mM; in experiment [2], 0.05 to 5 mM; in experiment [3] it was 0.05 to 5 mM; in experiment [4], 0.05 to 5 mM; in experiment [5] (24 hours), 10 to 50 µM. For the same compound, the concentration for half-maximal inhibition (IC50) in experiment [6] and in experiment [7] was 0.05 to 5 mM throughout.
For `O=C1c2c(nc3c(C(F)(F)F)c(N4CCNCC4)ccc3c2OCc2ccc(Cl)cc2)-c2cccn21` [Compound 483b, 9-((4-chlorobenzyl)oxy)-6-(piperazin-1-yl)-5-(trifluoromethyl)-10H-pyrrolizino[1,2-b]quinolin-10-one], the IC50 in the experiment on BHK-21 cells lay within 0.05 to 5 mM; in experiment [1] it was 5 to 20 mM; in experiment [2], 0.05 to 5 mM; in experiment [3] it was 0.05 to 5 mM; in experiment [4] it was 0.05 to 5 mM; in experiment [5] (24 hours) it was 1 to 10 µM. The concentration for half-maximal inhibition (IC50) in experiment [6] and in experiment [7] was 0.05 to 5 mM each time.
On to `O=C1c2c(n(Cc3ccc(Cl)cc3)c3c(F)c(N4CCNCC4)ccc3c2=O)-c2cccn21` [Compound 484a, 4-(4-Chlorobenzyl)-5-fluoro-6-(piperazin-1-yl)-9H-pyrrolizino[1,2-b]quinoline-9,10(4H)-dione], for which the IC50 was in the range of 0.05 to 5 mM in the experiment with BHK-21 cells; 0.05 to 5 mM in experiment [1] (Homo sapiens, HT-1080, 48 h); 0.05 to 5 mM in experiment [2]; 0.05 to 5 mM in experiment [3]; 0.05 to 5 mM in experiment [4]; 10 to 50 µM in experiment [5] (Mus musculus, RAW264.7, 24 h). Moreover, the IC50 in experiment [6] and in experiment [7] was 0.05 to 5 mM each time.
As for `O=C1c2c(nc3c(F)c(N4CCNCC4)ccc3c2OCc2ccc(Cl)cc2)-c2cccn21` [Compound 484b, 9-((4-chlorobenzyl)oxy)-5-fluoro-6-(piperazin-1-yl)-10H-pyrrolizino[1,2-b]quinolin-10-one], the IC50 was in the range of 0.05 to 5 mM in the experiment with BHK-21 cells; 0.05 to 5 mM in experiment [1] (Homo sapiens, HT-1080, 48 h); 0.05 to 5 mM in experiment [2]; 0.05 to 5 mM in experiment [3]; 0.05 to 5 mM in experiment [4]; 1 to 10 µM in experiment [5] (Mus musculus, RAW264.7, 24 h). The IC50 in experiment [6] and in experiment [7] was 0.05 to 5 mM throughout.
In the case of `O=C1c2c(n(Cc3ccc(F)cc3)c3c(F)c(N4CCNCC4)ccc3c2=O)-c2cccn21` [Compound 485a, 5-Fluoro-4-(4-fluorobenzyl)-6-(piperazin-1-yl)-9H-pyrrolizino[1,2-b]quinoline-9,10(4H)-dione], the IC50 in the experiment with BHK-21 cells was in the range of 0.05 to 5 mM; in experiment [1] (Homo sapiens, HT-1080, 48 h) it was 0.05 to 5 mM; in experiment [2], 0.05 to 5 mM; in experiment [3], 0.05 to 5 mM; in experiment [4], 0.05 to 5 mM; in experiment [5] (Mus musculus, RAW264.7, 24 h), 10 to 50 µM. For the same compound, the half-inhibitory concentration (IC50) in experiment [6] and in experiment [7] was 0.05 to 5 mM throughout.
`O=C1c2c(nc3c(F)c(N4CCNCC4)ccc3c2OCc2ccc(F)cc2)-c2cccn21` [Compound 485b, 5-fluoro-9-((4-fluorobenzyl)oxy)-6-(piperazin-1-yl)-10H-pyrrolizino[1,2-b]quinolin-10-one]: the IC50 is 0.05 to 5 mM in the experiment with BHK-21 cells; 0.05 to 5 mM in experiment [1] (Homo sapiens, HT-1080, 48 h); 0.05 to 5 mM in experiment [2]; 0.05 to 5 mM in experiment [3]; 0.05 to 5 mM in experiment [4]; 1 to 10 µM in experiment [5] (Mus musculus, RAW264.7, 24 h). Moreover, the IC50 in experiment [6] and in experiment [7] was 0.05 to 5 mM each time.
As for `O=C1c2c(n(Cc3ccc(F)cc3)c3cc(F)ccc3c2=O)-c2cccn21` [Compound 490a, 6-Fluoro-4-(4-fluorobenzyl)-9H-pyrrolizino[1,2-b]quinoline-9,10(4H)-dione], the IC50 in the experiment on BHK-21 cells is 0.05 to 5 mM; in experiment [1] (Homo sapiens, HT-1080, 48 h) it was 0.05 to 5 mM; in experiment [2] it was below 0.05 mM; in experiment [3], 0.05 to 5 mM; in experiment [4], 0.05 to 5 mM; in experiment [5] (Mus musculus, RAW264.7, 24 h) it was 10 to 50 µM. In addition, the IC50 in experiment [6] and in experiment [7] was 0.05 to 5 mM throughout.

For orientation: IC50 means the concentration needed to halve the response being measured.

The record behind these values is patent US11040028B2, “Penicinotam derivative, preparation method and use thereof” (OCEAN UNIVERSITY OF CHINA, priority 2017, dated 2021).
